# Reference: paper PMC4871512, “Drug-Based Lead Discovery: The Novel Ablative Antiretroviral Profile of Deferiprone in HIV-1-Infected Cells and in HIV-Infected Treatment-Naive Subjects of a Double-Blind, Placebo-Controlled, Randomized Exploratory Trial” (PLoS ONE, 2016)
# Columns and labels:
# [1] = Proof-of-concept trial: safety and tolerability
# Method: Since we were dosing a population with previously untested tolerance for deferiprone, the exploratory trial of this orally administered drug was conducted under uninterrupted medical observation and standardized conditions, e.g. uniform diet to minimize confounding food effects, in a specialized in-patient research unit for Phase I protocols. In-unit supervision lasted for the entire one-week duration of deferiprone ingestion (first stage of protocol S1 in Fig 6), which was intentionally restricted to the oral intake of in total just 17 doses. After discharge from the research unit, outpatient follow-up occurred at 4 weeks and 8 weeks (second stage of protocol S2 in Fig 6). […] Using drug toxicity grading criteria proposed by NIH [97, 98], we defined the following tolerability profile:
# Eligible for enrollment were volunteers of both genders, between 18 and 60 years old, healthy or HIV-infected with CD4 count ≥ 300/mm^3, viral load of ≥ 10,000 copies/ml, and absence of active infectious disease; AIDS-defining condition; febrile illness; liver or kidney disease; hypersensitivity to test material; and medication requirement. The protocol involved a screening visit; a pharmacokinetic and antiretroviral study requiring admission to a specialized Phase I research unit for a week of on-drug treatment, with multiple blood draws from a peripheral vein after oral intake of the first deferiprone dose, either 33 mg/kg or 50 mg/kg, and at least three repeat blood draws (first stage of protocol); an off-drug observation period of eight weeks, which comprised at least two repeat visits (second stage of protocol); and an exit visit. Enrollment complied with the applicable standard-of-care specified in the ‘Clinical Guidelines for the Management of HIV & AIDS in Adults and Adolescents’, National Department of Health, Republic of South Africa. Primary parameters included safety and tolerability (e.g. vital signs, laboratory variables, cardiac monitoring by ECG) and antiretroviral activity (e.g. RNA copies of HIV-1). Secondary parameters included pharmacokinetic variables (e.g. peak serum concentration) in serum, drawn from a peripheral vein at fixed times (0, 0.5, 1, 1.5, 2, 3, 4, 6, 9, 12) after the ingestion of the first dose on Day 1 of the study. The concentration of the nonconjugated, chelation-competent form of deferiprone in serum was determined by UV detection at 280 nm, after separation via reversed-phase HPLC under isocratic conditions. The lower limit of deferiprone quantitation was 1.466 μM, or 0.204 μg/ml. HIV-1 RNA was measured as described and used as log10-transformed parameter in all calculations.
# 26 consecutive subjects were randomly enrolled in the IRB-approved proof-of-concept trial and gave written informed consent to be studied (Supporting Information, S2 Text); recruitment of trial subjects commenced in November 2006 and follow-up terminated in April 2008. Double-blind enrollment comprised i) 18 HIV-infected, asymptomatic and—according to the applicable standard-of-care [74]–cART-ineligible individuals, who either received placebo (N = 4 [Protocol Group 4]) or deferiprone (Ferriprox®) administered orally every 8 hours in three equal doses under medical supervision, totaling initially either 99 mg/kg/day (N = 7 [Protocol Group 1]) or subsequently 150 mg/kg/day (N = 7 [Protocol Group 3]); and ii) 8 uninfected individuals either on placebo (N = 2 [Protocol Group 5]) or daily deferiprone (N = 6; 150 mg/kg/day [Protocol Group 2]); CD4 cells were quantified before, during, and at the end of the one-week treatment period. […] Visually identical tablets of deferiprone / placebo were administered once on Days 1 and 7, and thrice on Days 2–6 of protocol.
# [2] = cited from earlier work
structure (smiles),measurement,setting,value
"Cc1c(O)c(=O)ccn1C [deferiprone, 3-hydroxy-1,2-dimethylpyridin-4-one]",enrollees who completed the study,[1]; 99 mg group,86%
same,persons with elevations of transaminases and γ-glutamyl transpeptidase,"[1]; 99 mg group, N = 7 HIV-infected, end of the treatment week",2
same,grade of transaminase elevations,"[1]; 99 mg group, the 2 affected persons",Grade 3 and Grade 2
same,grade of γ-glutamyl transpeptidase elevations,"[1]; 99 mg group, the 2 affected persons, respectively",Grade 1 and Grade 2
same,enrollees who completed the study,"[1]; 150 mg group overall, N = 13",61%
same,persons with a rise in serum liver enzymes,"[1]; 150 mg group, HIV-uninfected",2 of 6
same,hematologic adverse event,"[1]; 150 mg group, Subject 22 (cmax 285 μM), medication discontinued on Day 3",agranulocytosis (Grade 4 absolute neutrophil count)
same,grade of γ-glutamyl transpeptidase elevation,"[1]; 150 mg group, Subject 22 and Subject 24",Grade 2
same,persons with a rise in serum liver enzymes,"[1]; 150 mg group, asymptomatic HIV-infected",4 of 7
same,grade of transaminase elevations,"[1]; 150 mg group, the four affected HIV-infected persons",three Grade 2 and one Grade 4
same,protocol completion,"[1]; 150 mg group, those with HIV infection",57%
same,"rise in serum liver enzymes, grade","[1]; HIV-uninfected persons on 150 mg/day, Subject 9 and Subject 12",Grade 1 transaminase elevation
same,spontaneous correction of the neutrophil count,[1]; Subject 22,within two weeks off-drug
same,spontaneous correction of the liver function abnormality,[1]; Subject 22 and Subject 24,within one week off-drug
same,heart rate-corrected QT interval on-drug,"[1]; Subject 317, 150 mg group, Grade 2 QTc prolongation",491 ms
same,increase of heart rate-corrected QT interval,"[1]; Subject 317, 150 mg group, baseline 441 ms, first stage, judged likely not causally linked",50 ms
same,off-drug rate-corrected QT interval,"[1]; Subject 317, several days after the end of drug intake",up to 488 ms
same,effect of dose increase on tolerability,[1]; in vivo,markedly reduced the tolerability
same,neurological adverse event,"[1]; one HIV-uninfected person, at 6 and 8 days after the end of deferiprone treatment",convulsive episodes
same,half-life in peripheral blood,[2]; human,approximately 2 hour
same,peak serum level,"[2]; in vivo, 65.2 mg/kg",up to 450 µM
same,difference in peak serum concentration (cmax) between UGT1A6-typed subjects,"[2]; in vivo, po",up to 35%
same,difference in total drug exposure over time (AUC0 - ∞) between UGT1A6-typed subjects,"[2]; in vivo, po",38%
